{"source": "patent US20100227896A1", "about": "“USE OF VITAMIN PP COMPOUNDS” (ASTELLAS DEUTSCHLAND GMBH, priority 1998, published 2010)", "key": {"[1]": {"tested_on": "NMRI mice", "method": "Parallel to this, 500 mg/kg nicotinamide was simultaneously intraperitoneally administered each to the individual dosage groups. 7 days after the beginning of treatment, the blood picture of the individual animals was examined."}, "[2]": {"tested_on": "Cryptic cells of the large intestine", "assay": "Growth/vitality of primary cryptic cells of the large intestine (crystal violet, MTT-test, 4 days treatment)", "type": "cell-based", "source_text": "Cryptic cells of the large intestine were isolated according to the method of Booth et al. (1995) with slight modifications. The removed large intestine was cut into pieces, the parts were finally cut after several-fold washing and digested with collagenase and dispase. Subsequently, the larger tissue pieces remaining in the suspension were sedimented, the supernatant was decanted and stored. The pellet was digested again under vigorous shaking with medium in order to release additional cryptic cells. After sedimentation, the supernatant was poured off again, combined with the first fraction and the cryptic cells were centrifuged at 50×g. After a further washing step, the centrifuge cryptic cells were suspended in culture medium and seeded at a density of 800 cells per well in 24-well-cultured dishes which were previously coated with collagen. The cells were incubated at 37° C. in a saturated water vapour atmosphere with 92.5% air and 7.5% CO2. […]\nThe growth of the culture was photometrically quantified after staining with crystal violet as a measure for the cell number and the vitality of the cells was determined with the MTT-test whose reaction depends on living cells with active mitochondria. Based on dose response curves, the IC50-values were calculated which are also used in the following Table 3 for characterization of the individual substance activity: […]"}, "[3]": {"tested_on": "lymphocytes", "assay": "Vitality of freshly isolated spleen lymphocytes (flow cytometry, propidium iodide / 3,3'-dihexyloxacarbocyanin iodide, 2 days)", "type": "cell-based, Swiss mouse", "conditions": "Mus musculus, Lymphocyte", "source_text": "Many cytostatic agents and radiation therapies as well have a cytcotoxic effect not only on tumor cells but also on the blood cell system. This leads to a weakening of the immune defence which can lead to life threatening infections. In addition, this can result in a so-called tumor lyse syndrome which can, lead to the death of the patient by the relatively quick death of large cell masses. In order to test the possibility for a therapeutical use of nicotinic acid and/or nicotinamide for preventing such life threatening conditions by massive cell death, the effect of the substance was tested on freshly isolated lymphocytes as follows:\nThe spleen of a Swiss mouse served as a lymphocyte source.\nThe lymphocyte population was isolated from the spleen cell suspension over a ficoll gradient and taken up in IMEM-ZO culture medium with 0,1% dextran 70,000 and 2% foetal calf serum. […] Subsequently, 10,000 cells per each sample were measured on a flow-through cytometer and the percentage amount of vital cells in the population was determined. By means of the dose-response curves, IC50-values were calculated which were also employed in the following Tables for the characterization of the individual substances: […]"}, "[4]": {"tested_on": "THP-1 cells", "assay": "Growth inhibition of THP-1 human leukaemia cells (WST-1 reagent, four days incubation)", "type": "cell-based", "conditions": "for pIC50: Homo sapiens; for effect on the growth-inhibiting effect of K22.097: THP-1 cells, summary of Table 1", "method": "THP-1 cells derived from a human monocytic leukaemia plated at a density of 200,000 cells/ml in 96-well plastic dishes. Cultivation occurred in RPMI 1640 nutrient medium with 10% foetal calf serum (FCS) in a tissue culture incubator with a gas mixture of 5% CO2 and 95% air at a temperature of 37° C. For the individual concentrations and the controls without test substances as well as for the background with nutrient medium but without cells, three-fold batches were done for each. After four days of substance incubation 20 μl WST-1 reagent (Boehringer Mannheim) was respectfully pipetted in each individual well. After 30 to 60 minute incubation in the tissue culture incubator at 37° C. and 5% CO2, the light extinction was measured in an ELISA reader at 450 nm wave length. The backgrounds were each subtracted from the typical measured valves. (The IC50-values (defined as that concentration in which the cell growth was inhibited by 50%) was taken from the dose-response curves and given as a comparative measurement for the activity of the test compounds.\nFurthermore, the anti-tumor substance Nr.159 with the internal label K22.175 according to the publication PCT/EP97/03245=WO97/48696 in the form of N-[4-(1-benzoylpiperidin-4-yl)-butyl]-3-(pyridin-3-yl)-acrylamide synthesized by the applicant was included in the experimental examinations. The results obtained therefrom confirm the above described finding on the useful effect according to the invention of the vitamin PP compounds."}}, "note": "pIC50: −log10 of the molar value. Where two headings read alike, the source gives them in different places."}
{"smiles": "O=C(CCc1cccnc1)NCCCCC1CCN(C(c2ccccc2)c2ccccc2)CC1", "note": "[K22.097, N-[4-(1-diphenylmethylpiperidin-4-yl)-butyl]-3-(pyridin-3-yl)-propionamide]", "values": [{"measurement": "Leukocyte number", "setting": "[1]; 2 × 100 mg/kg K22.097 orally + 2 × 500 mg/kg nicotinamide intraperitoneally, day 7", "result": "6,900 per μl"}, {"measurement": "Leukocyte number", "setting": "[1]; 2 × 100 mg/kg K22.097 orally over 4 days, blood picture 7 days after beginning of treatment", "result": "1,100 per μl"}, {"measurement": "Leukocyte number", "setting": "[1]; 2 × 120 mg/kg K22.097 orally + 2 × 500 mg/kg nicotinamide intraperitoneally, day 7", "result": "5,900 per μl"}, {"measurement": "Leukocyte number", "setting": "[1]; 2 × 120 mg/kg K22.097 orally over 4 days, blood picture 7 days after beginning of treatment", "result": 500, "unit": "per μl"}, {"measurement": "pIC50", "setting": "[2]; read-out: IC50-Value for K22.097, primary intestine cryptic cells, + 1 mM nicotinamide", "result": "< 5.00"}, {"measurement": "pIC50", "setting": "[2]; read-out: IC50-Value for K22.097, primary intestine cryptic cells, K22.097 alone", "result": 7.00}, {"measurement": "pIC50", "setting": "[3]; read-out: IC50-Value for K22.097, mouse spleen lymphocytes, + 10 mM nicotinamide", "result": "< 6.00"}, {"measurement": "pIC50", "setting": "[3]; read-out: IC50-Value for K22.097, mouse spleen lymphocytes, K22.097 alone", "result": 9.00}, {"measurement": "pIC50", "setting": "[4]; THP-1, read-out: IC50-Value for K22.097, THP-1 cells, + 0.1 mM nicotinic acid", "result": "< 5.00"}, {"measurement": "pIC50", "setting": "[4]; THP-1, read-out: IC50-Value for K22.097, THP-1 cells, + 1 mM nicotinamide", "result": "< 5.00"}, {"measurement": "pIC50", "setting": "[4]; THP-1, read-out: IC50-Value for K22.097, THP-1 cells, K22.097 alone", "result": 8.00}]}
{"smiles": "O=C(C=Cc1cccnc1)NCCCCC1CCN(C(=O)c2ccccc2)CC1", "note": "[K22.175, N-[4-(1-benzoylpiperidin-4-yl)-butyl]-3-(pyridin-3-yl)-acrylamide]", "values": [{"measurement": "pIC50", "setting": "[4]; THP-1, THP-1 cells, + 0.1 mM nicotinic acid, read-out: IC50-Value for K22.175", "result": "< 7.52"}, {"measurement": "pIC50", "setting": "[4]; THP-1, THP-1 cells, + 1 mM nicotinamide, read-out: IC50-Value for K22.175", "result": "< 7.52"}, {"measurement": "pIC50", "setting": "[4]; THP-1, THP-1 cells, K22.175 alone, read-out: IC50-Value for K22.175", "result": 9.30}]}
{"smiles": "NC(=O)c1cccnc1", "note": "[nicotinamide, reference compound]", "values": [{"measurement": "Leukocyte number", "setting": "[1]; mouse, in vivo, ip, 500 mg/kg", "result": "4,800 per μl"}, {"measurement": "effect on the growth-inhibiting effect of K22.097", "setting": "[4]", "result": "abrogated"}]}
{"smiles": "O=C(O)c1cccnc1", "note": "[nicotinic acid, reference compound]", "values": [{"measurement": "effect on the growth-inhibiting effect of K22.097", "setting": "[4]", "result": "abrogated"}]}
